Test results from ChEMBL document CHEMBL5346921, “Discovery of novel benzamide derivatives bearing benzamidophenyl and phenylacetamidophenyl scaffolds as potential antitumor agents via targeting PARP-1” (Eur J Med Chem, 2023).
Active and inactive are the calls of the source. The calls are words filed in the database; no cut-off is given here.

What was measured:
HCT-116 [1] = experiment: Induction of apoptosis in human HCT-116 cells assessed as viable cells at 1.5 uM incubated for 72 hrs by AnnexinV-FITC/PI staining based analysis (reference value: 98.95%); type: functional; details: read-out: Activity
HCT-116 [2] = experiment: Induction of apoptosis in human HCT-116 cells assessed as viable cells at 7.5 uM incubated for 72 hrs by AnnexinV-FITC/PI staining based analysis (reference value: 98.95%); type: functional; details: read-out: Activity
HCT-116 [3] = experiment: Induction of cell cycle arrest in human HCT-116 cells assessed as accumulation of cells at G2/M phase at 7.5 uM incubated for 72 hrs by PI staining based flow cytometry (reference value: 25.4%); type: functional
HCT-116 [4] = experiment: Induction of apoptosis in human HCT-116 cells assessed as necrotic cells at 7.5 uM incubated for 48 hrs by AnnexinV-FITC/PI staining based flow cytometry (reference value: 0%); type: functional
HCT-116 [5] = experiment: Induction of cell cycle arrest in human HCT-116 cells assessed as accumulation of cells at G0/G1 phase at 7.5 uM incubated for 48 hrs by PI staining based flow cytometry (reference value: 62.1%); type: functional
HCT-116 [6] = experiment: Induction of DNA double strand breaks in human HCT-116 cells assessed as gammaH2AX accumulation at 3 uM incubated for 48 hrs by immunofluorescence analysis; type: functional, cell-based
HCT-116 [7] = experiment: Induction of apoptosis in human HCT-116 cells assessed as increase in cleaved caspase-3 protein expression incubated for 48 hrs by western blot analysis; type: functional, cell-based; details: dose 0.3-3 µM
HCT-116 [8] = experiment: Inhibition of cell migration in human HCT-116 cells at 3 uM incubated for 24 hrs by wound healing assay; type: functional
HCT-116 [9] = experiment: Induction of apoptosis in human HCT-116 cells assessed as necrotic cells at 1.5 uM incubated for 48 hrs by AnnexinV-FITC/PI staining based flow cytometry (reference value: 0%); type: functional
HCT-116 [10] = experiment: Inhibition of cell migration in human HCT-116 cells at 3 uM incubated for 48 hrs by wound healing assay; type: functional
HCT-116 [11] = experiment: Inhibition of colony formation in human HCT-116 cells at 3 uM pretreated for 48 hrs followed by replacement of fresh medium and measured every 3 days by crystal violet staining based analysis; type: functional
[12] = target: Poly [ADP-ribose] polymerase 1 (Homo sapiens, UniProt P09874); experiment: Inhibition of human PARP-1 by ELISA
HCT-116 [13] = experiment: cells; details: Homo sapiens, HCT-116, 48 h
HCT-116 [14] = experiment: Induction of cell cycle arrest in human HCT-116 cells assessed as accumulation of cells at S phase at 7.5 uM incubated for 72 hrs by PI staining based flow cytometry (reference value: 16.7%); type: functional
HCT-116 [15] = experiment: Induction of apoptosis in human HCT-116 cells assessed as early apoptotic cells at 1.5 uM incubated for 48 hrs by AnnexinV-FITC/PI staining based flow cytometry (reference value: 2.11%); type: functional
HCT-116 [16] = experiment: Inhibition of cell migration in human HCT-116 cells at 1 uM incubated for 24 hrs by wound healing assay; type: functional
HCT-116 [17] = experiment: Induction of apoptosis in human HCT-116 cells assessed as necrotic cells at 7.5 uM incubated for 72 hrs by AnnexinV-FITC/PI staining based analysis (reference value: 0%); type: functional
HCT-116 [18] = experiment: Induction of cell cycle arrest in human HCT-116 cells assessed as accumulation of cells at G2/M phase at 0.3 uM incubated for 72 hrs by PI staining based flow cytometry (reference value: 25.4%); type: functional
HCT-116 [19] = experiment: Induction of mitochondrial membrane potential loss in human HCT-116 cells assessed as increase in monomer JC-1 level by measuring green fluorescence intensity at 3 uM incubated for 48 hrs by immunofluorescence analysis; type: functional, cell-based
HCT-116 [20] = experiment: Induction of cell cycle arrest in human HCT-116 cells assessed as accumulation of cells at G0/G1 phase at 0.3 uM incubated for 72 hrs by PI staining based flow cytometry (reference value: 57.2%); type: functional
HCT-116 [21] = experiment: Induction of cell cycle arrest in human HCT-116 cells assessed as accumulation of cells at G0/G1 phase at 7.5 uM incubated for 72 hrs by PI staining based flow cytometry (reference value: 57.2%); type: functional
HCT-116 [22] = experiment: Induction of apoptosis in human HCT-116 cells assessed as increase in cleaved PARP protein expression incubated for 48 hrs by western blot analysis; type: functional, cell-based; details: dose 0.3-3 µM
HCT-116 [23] = experiment: Induction of cell cycle arrest in human HCT-116 cells assessed as accumulation of cells at S phase at 0.3 uM incubated for 72 hrs by PI staining based flow cytometry (reference value: 16.7%); type: functional
HCT-116 [24] = experiment: Induction of cell cycle arrest in human HCT-116 cells assessed as accumulation of cells at S phase at 0.3 uM incubated for 48 hrs by PI staining based flow cytometry (reference value: 14.5%); type: functional
HCT-116 [25] = experiment: Induction of apoptosis in human HCT-116 cells assessed as necrotic cells at 1.5 uM incubated for 72 hrs by AnnexinV-FITC/PI staining based analysis (reference value: 0%); type: functional
HCT-116 [26] = experiment: Induction of cell cycle arrest in human HCT-116 cells assessed as accumulation of cells at S phase at 1.5 uM incubated for 72 hrs by PI staining based flow cytometry (reference value: 16.7%); type: functional
HCT-116 [27] = experiment: Induction of apoptosis in human HCT-116 cells assessed as early apoptotic cells at 7.5 uM incubated for 72 hrs by AnnexinV-FITC/PI staining based analysis (reference value: 1.05%); type: functional
HCT-116 [28] = experiment: Induction of mitochondrial membrane potential loss in human HCT-116 cells assessed as JC-1 aggregate level by measuring red fluorescence intensity at 3 uM incubated for 48 hrs by JC-1 staining based flow cytometry (reference value: 96.72%); type: functional
HCT-116 [29] = experiment: Induction of apoptosis in human HCT-116 cells assessed as late apoptotic cells at 0.3 uM incubated for 72 hrs by AnnexinV-FITC/PI staining based analysis (reference value: 0%); type: functional
HCT-116 [30] = experiment: Induction of cell cycle arrest in human HCT-116 cells assessed as accumulation of cells at G0/G1 phase at 1.5 uM incubated for 72 hrs by PI staining based flow cytometry (reference value: 57.2%); type: functional
HCT-116 [31] = experiment: Inhibition of cell migration in human HCT-116 cells at 1 uM incubated for 48 hrs by wound healing assay; type: functional
HCT-116 [32] = experiment: Induction of cell cycle arrest in human HCT-116 cells assessed as accumulation of cells at G2/M phase at 1.5 uM incubated for 48 hrs by PI staining based flow cytometry (reference value: 24.7%); type: functional
HCT-116 [33] = experiment: Induction of apoptosis in human HCT-116 cells assessed as viable cells at 0.3 uM incubated for 72 hrs by AnnexinV-FITC/PI staining based analysis (reference value: 98.95%); type: functional; details: read-out: Activity
HCT-116 [34] = experiment: Induction of cell cycle arrest in human HCT-116 cells assessed as accumulation of cells at G0/G1 phase at 1.5 uM incubated for 48 hrs by PI staining based flow cytometry (reference value: 62.1%); type: functional
HCT-116 [35] = experiment: Induction of mitochondrial membrane potential loss in human HCT-116 cells assessed as JC-1 monomer level by measuring green fluorescence intensity at 1 uM incubated for 48 hrs by JC-1 staining based flow cytometry (reference value: 3.28%); type: functional

Sequence of Poly [ADP-ribose] polymerase 1 (P09874 whole entry): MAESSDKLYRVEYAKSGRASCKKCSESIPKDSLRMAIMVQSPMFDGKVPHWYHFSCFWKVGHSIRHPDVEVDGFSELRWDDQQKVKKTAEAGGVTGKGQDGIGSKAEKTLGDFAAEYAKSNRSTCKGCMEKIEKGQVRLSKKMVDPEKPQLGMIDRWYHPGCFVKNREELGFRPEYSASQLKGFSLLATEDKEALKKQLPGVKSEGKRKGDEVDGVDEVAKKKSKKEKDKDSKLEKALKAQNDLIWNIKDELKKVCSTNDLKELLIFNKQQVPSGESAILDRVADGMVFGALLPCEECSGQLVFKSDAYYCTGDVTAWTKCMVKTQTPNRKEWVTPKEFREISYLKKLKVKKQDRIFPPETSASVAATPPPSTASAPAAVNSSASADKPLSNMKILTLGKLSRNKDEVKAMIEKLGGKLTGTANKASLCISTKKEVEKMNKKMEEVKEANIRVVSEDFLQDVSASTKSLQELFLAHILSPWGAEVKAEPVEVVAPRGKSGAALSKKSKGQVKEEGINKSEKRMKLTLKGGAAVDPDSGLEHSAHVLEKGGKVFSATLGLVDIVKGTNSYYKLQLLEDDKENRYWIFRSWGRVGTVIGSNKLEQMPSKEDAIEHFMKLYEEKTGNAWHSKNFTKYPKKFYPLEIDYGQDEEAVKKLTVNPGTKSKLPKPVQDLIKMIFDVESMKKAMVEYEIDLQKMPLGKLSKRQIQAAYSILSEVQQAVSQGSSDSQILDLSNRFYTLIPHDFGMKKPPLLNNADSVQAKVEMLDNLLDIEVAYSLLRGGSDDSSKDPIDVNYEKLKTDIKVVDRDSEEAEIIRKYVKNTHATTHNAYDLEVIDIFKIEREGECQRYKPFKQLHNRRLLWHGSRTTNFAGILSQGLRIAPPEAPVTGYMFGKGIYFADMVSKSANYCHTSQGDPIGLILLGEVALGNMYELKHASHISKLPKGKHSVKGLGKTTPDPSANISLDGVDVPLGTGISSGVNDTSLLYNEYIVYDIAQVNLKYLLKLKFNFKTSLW

NC(=O)c1ccccc1OCc1cccc(NC(=O)c2ccc(Br)cc2)c1
viability at 1.5 µM (HCT-116 [1]): 69.3% | viability at 7.5 µM (HCT-116 [2]): 20.5% | Activity (HCT-116 [3]): 45.5% | Activity (HCT-116 [4]): 0.51% | Activity (HCT-116 [5]): 49.7% | Activity (HCT-116 [6]): Active | Activity (HCT-116 [7]): Dose-Dependent Effect | inhibition at 3 µM (HCT-116 [8]): 22.3% | Activity (HCT-116 [9]): 1.38% | inhibition at 3 µM (HCT-116 [10]): 43.2% | inhibition at 3 µM (HCT-116 [11]): 100% | IC50 [12]: 0.25 nM | IC50 (HCT-116 [13]): 300 nM | Activity (HCT-116 [14]): 20.3% | Activity (HCT-116 [15]): 22.69% | inhibition at 1 µM (HCT-116 [16]): 18% | Activity (HCT-116 [17]): 0.01% | Activity (HCT-116 [18]): 29.6% | Activity (HCT-116 [19]): Active | Activity (HCT-116 [20]): 46.9% | Activity (HCT-116 [21]): 34.4% | Activity (HCT-116 [22]): Dose-Dependent Effect | Activity (HCT-116 [23]): 22.4% | Activity (HCT-116 [24]): 11% | Activity (HCT-116 [25]): 0.01% | Activity (HCT-116 [26]): 15.6% | Activity (HCT-116 [27]): 79.44% | Activity (HCT-116 [28]): 49.97% | Activity (HCT-116 [29]): 0% | Activity (HCT-116 [30]): 45.1% | inhibition at 1 µM (HCT-116 [31]): 36.3% | Activity (HCT-116 [32]): 33% | viability at 0.3 µM (HCT-116 [33]): 76.3% | Activity (HCT-116 [34]): 56.6% | Activity (HCT-116 [35]): 14.16%
